From paper PMC7515946, “Targeting of Perforin Inhibitor into the Brain Parenchyma Via a Prodrug Approach Can Decrease Oxidative Stress and Neuroinflammation and Improve Cell Survival” (Molecular Neurobiology, 2020)
Non-standard residues stand in square brackets, D forms with d. No end group written: not given here. Sta = CC(C)C[C@H](N)[C@@H](O)CC(=O)O

Experiments:
[1] = molecular target: T1, LAT1 (Mus musculus, UniProt Q9Z127); assay: Ability to bind to LAT1: inhibition of [14C]-L-leucine uptake in astrocytes; type: cell-based; details: mouse primary astrocytes, 0.76 μM [14C]-L-leucine, 5 min, 37 °C
T1 construct: endogenous in cells; host or cells: mouse primary astrocytes (C57BL/6JOlaHsd), cortex and hippocampi
Experimental: For the transporter-binding studies, the astrocytes were seeded on 24-well plates with a density of 10 × 10^4 cells/well 3 days before the experiments. After removal of the culture medium, the cells were carefully washed with pre-warmed HBSS (Hank’s balanced salt solution) containing choline chloride (125 mM), KCl (4.8 mM), MgSO4 (1.2 mM), KH2PO4 (1.2 mM), CaCl2 (1.3 mM), glucose (5.6 mM), and HEPES (25 mM) adjusted to pH 7.4 with 1 M NaOH. The cells were pre-incubated with 500 μL of pre-warmed HBSS at 37 °C for 5 min before the experiments. To study the ability of studied compounds to inhibit the uptake of a known LAT1 substrate, the cells were incubated at 37 °C for 5 min with an uptake buffer (HBSS, 250 μL) containing 0.76 μM (0.25 mCi/mL or […]) of [^14C]-L-leucine (PerkinElmer, Waltham, MA, USA) and 0.1–1000 μM of studied compound (or HBSS as blank). After incubation, the uptake was stopped by adding 500 μL of ice-cold HBSS, and the cells were washed two times with ice-cold HBSS (2 × 500 μL). The cells were then lysed with 500 μL of NaOH (0.1 M) for 60 min and the lysate was mixed with 3.5 mL of Emulsifier-Safe cocktail (Ultima Gold, PerkinElmer, Waltham, MA, USA). The radioactivity in the cells was measured by liquid scintillation counting (MicroBeta^2 counter, PerkinElmer Waltham, MA, USA). Half of the maximum inhibitory concentration (IC50) values were calculated by nonlinear regression analysis (fitting the curve to log (concentration) vs. remaining normalized viability).

[2] = tested on: MCF-7 human breast adenocarcinoma cells; assay: Cell viability of MCF-7 cells with cisplatin co-treatment (resazurin); type: cell-based; details: 100 μM, 72 h incubation
[3] = molecular target: T2, purified human β-site amyloid precursor protein (APP) cleaving enzyme 1 (BACE1) (Homo sapiens, UniProt P56817); assay: BACE1 FRET inhibition assay; type: biochemical; details: 0.25 μM, 30 min
T2 construct: purchased AnaSpec, Inc. (Fremont, CA, USA), SensoLyte 520 BACE1 Assay kit
Excerpt: A fluorometric assay was used to screen the inhibitory effect of the studied compounds on purified human β-site amyloid precursor protein (APP) cleaving enzyme 1 (BACE1) using a fluorescence resonance energy transfer (FRET) peptide technique (SensoLyte© 520 BACE1 Assay kit, AnaSpec, Inc., Fremont, CA, USA) according to the manufacturer’s protocol. […] The sequence of the FRET peptide has been derived from the β-secretase cleavage site of β-amyloid precursor protein (APP) with Swedish mutation, which enhances β-secretase to process APP resulting in an early onset of AD. Thus, active β-secretase cleaved the FRET substrate into two separate fragments resulting in the release of HiLyte™ Fluor 488 fluorescence that was measured by the Envision plate reader (EnVision, Perkin Elmer, Waltham, MA, USA) at λex 490 nm and λem 520 nm.

[4] = tested on: caspase-3/-7; assay: Caspase-3/-7 in brain of LPS-induced neuroinflammation mice; type: in vivo, mouse; details: LPS 250 μg/kg i.p. for 3 days, relative to control
Experimental: Adult male C57BL/6JOlaHsd mice (Jackson Laboratories, Bar Harbor, ME, USA) were supplied by Envigo (Venray, Netherlands). Mice were housed in stainless steel cages on a 12-h light (07:00–19:00) and 12-h dark (19:00–07:00) cycle at an ambient temperature of 22 ± 1 °C with a relative humidity of 50–60%. All experiments were carried out during the light phase. Tap water and food pellets (Lactamin R36; Lactamin AB, Södertälje, Sweden) were available ad libitum. Neuroinflammation was induced by the treatment with LPS 250 μg/kg i.p once per day for 3 consequent days followed by decapitation on the 4th day. The animals were allocated to one of four treatment groups (n = 6 per group): (1) LPS-treated mice, (2) mice treated with LPS and the studied compound (30 μmol/kg; i.v.) for 3 days and 120 min before the decapitation on the 4th day (preventative efficacy), (3) mice treated with LPS for 3 days and with the studied compound (30 μmol/kg; i.v.) only for the last 2 days, and (4) control mice treated with 0.9% NaCl solution i.p. once per day for 3 days. After decapitation, mouse blood and brain samples were collected. […] The plasma layer was centrifuged again at 12,000 × g to remove the platelets. Plasma was stored at − 80 °C until analysis. The brains were snap-frozen in liquid nitrogen and stored at − 80 °C until analysis.
The effects of the compounds on the enzyme activity of caspase-3 and caspase-7 were evaluated from the snap-frozen mouse brain. Pieces of tissues (n = 3) were homogenized in 50 mM Tris–HCl (pH 7.4) 1:10 (w/v) with a bead mill homogenizer. […] The enzyme activity was measured with an Apo-ONE Homogenous Caspase-3/7 Assay kit (Promega Corporation, Madison, WI, USA) according to the manufacturer’s instruction. The assay was performed on 96-well plates, each sample having 3 replicates. Each of the sample wells contained 100 μL of the previously collected supernatant and 100 μL of the prepared Apo-ONE reagent. The blank measurement was carried out with the homogenization buffer and Apo-ONE reagent. Once all the samples and reagents were pipetted in the wells, the plate was carefully shaken for 30 s and left for incubation in dark at room temperature. The fluorescence was measured after the incubation with an EnVision 2104 Multilabel Reader (PerkinElmer, Waltham, MA, USA), with λex 499 nm and λem 521 nm. The measurement was repeated on multiple time points between 0.5 and 24 h.

[5] = tested on: prostaglandin E2 (PGE2) production; assay: Brain PGE2 production in LPS-induced mice; type: in vivo, mouse; details: LPS 250 μg/kg per day for 3 days; control 5.72 ± 1.83
Experimental: Adult male C57BL/6JOlaHsd mice (Jackson Laboratories, Bar Harbor, ME, USA) were supplied by Envigo (Venray, Netherlands). Mice were housed in stainless steel cages on a 12-h light (07:00–19:00) and 12-h dark (19:00–07:00) cycle at an ambient temperature of 22 ± 1 °C with a relative humidity of 50–60%. All experiments were carried out during the light phase. Tap water and food pellets (Lactamin R36; Lactamin AB, Södertälje, Sweden) were available ad libitum. Neuroinflammation was induced by the treatment with LPS 250 μg/kg i.p once per day for 3 consequent days followed by decapitation on the 4th day. […]
The effects of the studied compounds to inhibit PGE2 production in the mouse brain were evaluated after LPS-induction as curative and preventative treatments. […] The data were acquired using the Agilent MassHunter Workstation software (version B.06.00) and processed with the Quantitative Analysis (B.07.00) software. The lower limit of quantification (LLOQ) for PGE2 was 1 nM.

T1 sequence (Q9Z127 whole entry): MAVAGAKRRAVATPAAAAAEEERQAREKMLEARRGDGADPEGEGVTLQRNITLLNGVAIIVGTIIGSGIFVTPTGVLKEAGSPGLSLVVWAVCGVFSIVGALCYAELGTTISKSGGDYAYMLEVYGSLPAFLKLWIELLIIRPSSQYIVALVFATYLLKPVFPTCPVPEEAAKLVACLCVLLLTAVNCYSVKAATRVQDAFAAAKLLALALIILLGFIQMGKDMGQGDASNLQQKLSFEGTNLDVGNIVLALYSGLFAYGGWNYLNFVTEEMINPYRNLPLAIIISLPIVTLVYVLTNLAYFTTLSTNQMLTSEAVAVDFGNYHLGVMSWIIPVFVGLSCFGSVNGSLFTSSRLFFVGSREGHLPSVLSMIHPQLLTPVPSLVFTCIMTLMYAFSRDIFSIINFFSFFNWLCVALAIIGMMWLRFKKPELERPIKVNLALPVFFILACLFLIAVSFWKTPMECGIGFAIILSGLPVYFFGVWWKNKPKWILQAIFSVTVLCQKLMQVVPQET
T1 sequence (P10852 whole entry partner): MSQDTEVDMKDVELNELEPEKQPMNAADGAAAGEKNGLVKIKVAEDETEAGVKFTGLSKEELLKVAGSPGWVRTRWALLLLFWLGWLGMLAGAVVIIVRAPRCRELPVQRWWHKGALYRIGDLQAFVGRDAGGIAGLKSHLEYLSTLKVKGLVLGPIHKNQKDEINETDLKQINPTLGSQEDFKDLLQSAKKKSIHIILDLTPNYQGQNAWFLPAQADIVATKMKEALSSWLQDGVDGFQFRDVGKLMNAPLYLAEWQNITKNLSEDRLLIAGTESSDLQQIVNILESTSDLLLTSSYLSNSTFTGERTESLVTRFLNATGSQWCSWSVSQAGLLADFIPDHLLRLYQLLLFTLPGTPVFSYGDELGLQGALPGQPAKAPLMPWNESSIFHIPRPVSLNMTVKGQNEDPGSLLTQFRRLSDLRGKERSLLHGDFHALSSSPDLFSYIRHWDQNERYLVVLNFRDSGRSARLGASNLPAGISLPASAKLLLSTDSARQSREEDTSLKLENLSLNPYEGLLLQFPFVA
T2 sequence (P56817 22-501 limits assumed): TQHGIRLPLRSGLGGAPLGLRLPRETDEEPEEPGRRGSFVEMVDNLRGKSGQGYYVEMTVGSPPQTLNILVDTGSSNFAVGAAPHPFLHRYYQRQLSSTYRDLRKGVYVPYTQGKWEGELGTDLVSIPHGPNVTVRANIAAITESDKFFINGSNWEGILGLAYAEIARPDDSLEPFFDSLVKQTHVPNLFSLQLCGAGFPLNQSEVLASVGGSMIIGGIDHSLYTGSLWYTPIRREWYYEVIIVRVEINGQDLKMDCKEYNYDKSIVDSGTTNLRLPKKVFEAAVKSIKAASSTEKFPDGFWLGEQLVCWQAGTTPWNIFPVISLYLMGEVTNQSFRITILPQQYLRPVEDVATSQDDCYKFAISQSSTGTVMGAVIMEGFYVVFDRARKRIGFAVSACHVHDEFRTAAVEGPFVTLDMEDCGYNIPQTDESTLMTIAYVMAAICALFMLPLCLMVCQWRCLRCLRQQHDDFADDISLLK

## CNC(=O)COc1ccc(-c2c(C#N)c(NC(=O)c3cccc(C[C@H](N)C(=O)O)c3)n3c(nc4ccccc43)c2C#N)cc1 [LAT1 inhibitor, KMH-233, reference compound]
[1]
  IC50: 14.4 ± 1.2 µM
[1]; listed as LAT1-inhibitor
  IC50: 14 µM

## N.N.[Cl][Pt][Cl] [cisplatin, reference compound]
[2]
  Inhibition of MCF-7 cell growth: 51%

## KTEEISEVN-Sta-VAEF-NH2 (KTEEISEVN[Sta]VAEF-NH2; N-terminus assumed; SMILES CC[C@H](C)[C@H](NC(=O)[C@H](CCC(=O)O)NC(=O)[C@H](CCC(=O)O)NC(=O)[C@@H](NC(=O)[C@@H](N)CCCCN)[C@@H](C)O)C(=O)N[C@@H](CO)C(=O)N[C@@H](CCC(=O)O)C(=O)N[C@H](C(=O)N[C@@H](CC(N)=O)C(=O)N[C@@H](CC(C)C)[C@@H](O)CC(=O)N[C@H](C(=O)N[C@@H](C)C(=O)N[C@@H](CCC(=O)O)C(=O)N[C@@H](Cc1ccccc1)C(N)=O)C(C)C)C(C)C) [BACE1 inhibitor, reference compound]
[3]
  Inhibition of BACE1 activity: ca. 86%

## lipopolysaccharide [LPS]
[4]
  Brain caspase-3/-7 levels, LPS alone: 137%
[5]
  Brain PGE2 production, LPS alone: 16.56 ± 2.45 nmol of PGE2/mg tissue
